Source: patent US9744250B2, “Chemical model of a neurodegenerative disease, method for preparation and uses of same” (priority 2012, dated 2017)

What was measured:
caspase-9 = test: Caspase-9 activity (Ac-LEHD-AFC cleavage) in SH-SY5Y cells; type: cell-based, human; conditions: 1 mM, 96 h
Experimental: Measurement of the activities of the various caspases is based on the ability of the caspases to cleave specific fluorescent substrates: Ac-DEVD-AFC for caspase-3, Ac-IETD-AFC for caspase-8, or Ac-LEHD-AFC for caspase-9. SH-SY5Y neuronal cells were incubated in 48-well plates with either furosemide pyridinium (1 mM) for 96 h or with MPP+ (1 mM) for 6 h, then 24 h of incubation with no MPP+. After incubation, the cells were trypsinized, then rinsed with PBS and counted, then harvested in 100 μl of buffer containing 30 mM HEPES, 0.3 mM EDTA, 100 mM NaCl, 0.15% Triton X-100, and 10 mM DTT. The cell extract was then incubated for 1 hour at 37° C. with the specific substrate (100 μM) in a 96-well plate. Fluorescence was measured at λex400 nm and λem505 nm in a fluorescence detection plate reader (TECAN Infinite M1000) (Yue et al., supra). The results were expressed as percentages relative to the measured activity of cells cultured under the same conditions and not subjected to any treatment.

[1] = tested on: mitochondria isolated from rat cerebral cortex; test: Respiratory control (oxygen consumption, malate/pyruvate) of isolated cerebral cortex mitochondria; type: biochemical; conditions: increasing concentration
Experimental: (§1) The animal was then decapitated in order to collect from the brain either the cortex or the striatum, which were quickly placed in a Potter Elvejhem® containing 6 ml of extraction buffer at 4° C. (250 mM sucrose, 40 mM KCl, 2 mM EGTA, lmg/ml BSA, 20 mM Tris, pH=7.2). This mixture was homogenized to break open the cells and release the mitochondria and then centrifuged at 2000 g for 8 minutes to remove the larger membrane debris and the nuclei from the pellet. The supernatant was then recovered and centrifuged at 13,000 g for 11 minutes. The supernatant was discarded while the pellet containing a mitochondria-rich fraction was resuspended in 500 μl of respiration buffer at 4° C. (300 mM D-mannitol, 10 mM KCl, 10 mM KH2PO4, 5 mM MgCl2, pH=7.2). […]
(§2) Added to the polarography chamber (Hansatech) were 30 μl of mitochondria solution (0.2 mg), 460 μL of respiration buffer, 5 μl of test compound solution (meaning MPP+ or furosemide pyridinium) (or its solubilizing solvent). […] The effect of the compound on respiratory control was evaluated (ratio of stage 3 to 4), which corresponds to the coupling of the respiratory chain, or in other words the ATP synthesis at complex V and the oxygen consumption due to complexes I to IV. The results are expressed as percentages of the value measured for mitochondria not treated with the test compound (but treated with the solubilizing solvent).

[2] = tested on: mitochondria isolated from rat striatum; test: Respiratory control (oxygen consumption) of isolated striatum mitochondria; type: biochemical
Experimental: as §1, §2

[3] = tested on: respiratory chain complexes II-V of rat cerebral cortex mitochondria; test: Respiratory control after induction of complex II by succinate and inhibition of complex I by rotenone; type: biochemical; conditions: 1 mM, succinate
Experimental: as §1
Added to the polarography chamber (Hansatech) were 30 μl of mitochondria solution (0.2 mg), 460 μL of respiration buffer, 5 μl of test compound solution (meaning MPP+ or furosemide pyridinium) (or its solubilizing solvent). […] The effect of the compound on respiratory control was evaluated (ratio of stage 3 to 4), which corresponds to the coupling of the respiratory chain, or in other words the ATP synthesis at complex V and the oxygen consumption due to complexes I to IV. The results are expressed as percentages of the value measured for mitochondria not treated with the test compound (but treated with the solubilizing solvent). […]

tyrosine hydroxylase = test: Immunohistochemistry of tyrosine hydroxylase in exposed mice; type: in vivo, mouse; conditions: 20 mg/kg/day oral 7 days, 30 days after end of exposure
Experimental: (§3) Swiss mice were divided into two groups of five animals (experimental and control). The experiments were performed independently two times. The mice of the experimental group were exposed to furosemide pyridinium for 7 days at a daily dose of 20 mg/kg. The furosemide pyridinium was administered orally in the drinking water. The mice were sacrificed 30 days after the end of the furosemide pyridinium treatment.
(§4) For this, the mice were anesthetized with pentobarbital (50 mg/Kg), then an intracardiac infusion of NaCl (0.9%) was administered, followed by fixation by an infusion of 4% paraformaldehyde in 0.1M phosphate buffer, pH 7.2. The brain was removed, placed in NaCl (0.9%) at 4° C., and frozen in Tissue Tek immersed in a cold isopentane bath. Coronal sections of eight microns were obtained using a cryostat and were processed for immunohistochemistry (labeling the tyrosine hydroxylase and the Ser129-phosphorylated alpha-synuclein).

[4] = tested on: α-synuclein phosphorylated at serine 129; test: Immunohistochemistry of Ser129-phosphorylated alpha-synuclein in exposed mice; type: in vivo, mouse; conditions: 20 mg/kg/day oral 7 days, 30 days after end of exposure
Experimental: as §3, §4

rats = test: Lethality of 7-day oral administration in rats; type: in vivo, rat; conditions: daily dose of 20 mg/kg for seven days
Experimental: A platform for electrophysiological and behavioral monitoring of the rats was used. For this, a subcutaneous implant (Data Science) was placed in the rats which allowed the EEG to be recorded by telemetry, leaving the animal completely free to move about. The cage was equipped with a video camera (10 frames per second) and an infrared light to allow recordation of the animal's activity. The EEG and video sequences were recorded in sequences of 10 seconds, and a set of variables was calculated for each sequence. The use of dedicated software allowed integration of these variables over the entire recording to detect changes in the animal's activity, EEG, and circadian rhythms. Each animal served as its own control because it was recorded for 5 days prior to furosemide pyridinium administration. The solution of furosemide pyridinium (20 mg) was dissolved in dimethylsulfoxide (DMSO, 200 μl) and then diluted with water (50 ml). The solution was replaced every day and administered for 7 days in the drinking water at a dose of 20 mg/kg. The rats were then sacrificed 5 weeks after the last dose. The rats were anesthetized with pentobarbital and infused intracardially with saline ([…]), then fixed with 4% paraformaldehyde. After the infusion, the brain was removed and placed in NaCl (0.9%) at 4° C. The brain was frozen in Tissue Tek immersed in a cold isopentane bath. […]

NS(=O)(=O)c1cc(C(=O)[O-])c(-[n+]2cccc(O)c2)cc1Cl [furosemide pyridinium, 4-chloro-2-(3-hydroxypyridinium-1-yl)-5-sulfamoylbenzoate]
enzymatic activity of caspase-9 compared to untreated cells (caspase-9): 170% | respiratory control of cerebral cortex mitochondria induced by malate/pyruvate [1]: diminished | effect on striatal mitochondria versus cortex mitochondria ([2]; comparison striatum vs cortex): greater on striatal mitochondria | oxygen consumption of striatum mitochondria ([2]; dose-response): decrease in oxygen consumption | respiratory control of cortex mitochondria after induction by complex II [3]: not modified | labeling of tyrosine hydroxylase in the striata (tyrosine hydroxylase): net reduction | α-synuclein phosphorylated at serine 129 in the cortexes ([4]; cortex): no increase | α-synuclein phosphorylated at serine 129 in the striata ([4]; striatum): sharp increase | lethality (rats): not lethal
